One assay concerns the target recombinant Wee1 protein (Homo sapiens (Human), UniProt P30291). Description: Wee1 enzymatic activity inhibition, ADP-Glo luminescence assay. Conditions: recombinant Wee1, PolyE4Y1 substrate, 1 h room temperature. Type of assay: biochemical. The procedure:
Example A. Primary Assay Used to Determine Potency of Wee1 Enzymatic Activity Inhibition
Compound activity was determined using recombinant Wee1 protein (BPS, Cat #40412) and PolyE4Y1 Substrate (Poly(Glu,Tyr) sodium salt, Sigma, Cat #P0275-25MG) in an in vitro enzymatic reaction. The enzymatic assay used to determine activity was a Luminescence assay using a Microplate Reader (BMG, ClarioStar Plus). The enzymatic reaction was carried out in assay buffer (40 mM TRIS-HCl pH 7.4-7.6, 20 mM MgCl2, 0.05 mM DTT, 0.1 mg/ml BSA, 5 mM MnCl2). The compounds were dispensed on a 384 well Diamond Well Plate (Axigen, Cat #P-384-120SQ-C-S) using the Biomek FX liquid handling system at 100× solutions of compounds in DMSO. 2×Wee1-PolyE4Y1 mix (final concentration 0.85 ng/μl of Wee1 and 0.2 μg/μl of PolyE4Y1) was prepared in 1× Assay buffer and 5.5 μl of mixture per well was added into 384w white Reaction plate with NBS (Corning, Cat #4513). 5.5 μl of PolyE4Y1 substrate w/o Wee1 in 1× buffer was used for negative control. Plates were centrifuged for 1 min at 100 g. Next step the Compounds were added to Reaction plate using Biomek station via following steps: 1 μl of 100× compounds (in DMSO) were mixed thoroughly with 49 μl of 2×10 μM ATP in Assay Buffer, then 5.5 μl of this mixture was added to Reaction plate with 5.5 μl of Wee1-PolyE4Y1 mix. Plates were centrifuged for 1 min at 100 g and incubated for 1 h at room temperature. Next 3 μL of ADP-Glo reagent (Promega, ADP-Glo™ Kinase Assay, Cat #V9102) per well was added. Plates were incubated for 30 minutes at room temperature. Then 6 μL of Kinase detection reagent (Promega, ADP-Glo™ Kinase Assay, Cat #V9102) per well was added and the Luminescence was measured using Microplate Reader. The % inhibition was then used to calculate the IC50 values. The IC50 values are shown in Table A, wherein “A” corresponds to IC50<0.01 μM, “B” corresponds to 0.01 μM≤IC50<0.1 μM, “C” 0.1 μM≤IC50<1 μM, and “D” corresponds to […].
A general note: In ADP-Glo the light output rises with the ADP produced.

Assay [1] has as its target recombinant PARP1 (AA662-1014) protein (Homo sapiens (Human), UniProt P09874). The experiment in a line: Tracer displacement fluorescence polarization assay. The settings on record: displacement of AlexaFluor488 tracer from NAD+-binding site, PARP1 25 nM. On the procedure:
Example B. Tracer Displacement Fluorescence Polarization Assays
Displacement of AlexaFlour488 marked tracer from the NAD+-binding site of recombinant PARP1 (AA662-1014) protein (OriGene, Cat #: AR09368PU-L) was measured in vitro using Fluorescence polarization assay. The reaction was carried out in assay buffer (50 mM TRIS-HCl pH 7.4-7.8, 150 mM NaCl, 10 mM MgCl2, 0.001% Triton-X). 2×PARP1 (final concentration 25 nM) was diluted in 1× Assay buffer and 10 μl of the solution per well was added into 384-well Black Non-Treated Reaction plate (Corning, Cat #4511). Plates were centrifuged for 1 min at 200 g. The compounds were prepared in a 384-well Diamond Well Plate (Axygen, Cat #P-384-120SQ-C-S) as 400× solutions in DMSO and were transferred into Reaction plate using the Biomek FX liquid handling system with intermediate dilution down to 10× working solution in assay buffer in a separate 384-well Diamond Well Plate (Axygen, Cat #P-384-120SQ-C-S) (2 μl per well). Plates were centrifuged for 1 min at 200 g and incubated for 15 min at room temperature in the dark. Then 8 μL per well of 2.5× Tracer AlexaFluor488 (final concentration 1 nM) diluted in 1× Assay buffer was added into Reaction plate. 1× Assay buffer was used to make blank samples for instrument calculations. Plates were incubated for 30 minutes at room temperature in the dark. Fluorescence polarization was measured using Microplate Reader (BMG, ClarioStar Plus). The % tracer displacement was used to calculate the IC50 values. The IC50 values are shown in Table A, wherein “A” corresponds to IC50<0.01 μM, “B” corresponds to 0.01 μM≤IC50<0.1 μM, “C” 0.1 μM≤IC50<[…], and “D” corresponds to […].
Background: Fluorescence polarisation rises when a labelled molecule tumbles more slowly, as on binding a larger partner.

For a further assay, the system named is MDA-MB-231. Description: Cellular growth inhibition assay (CellTiter-Glo). It is filed as cell-based. The settings on record: Homo sapiens. The procedure:
Example E. Cellular Growth Inhibition Assay
HEK293 (Institute of Cytology Russian Academy of Science), MDA-MB-231 (ATCC, CRM-HTB-26), HCC1395 (ATCC, CRL-2324), HCC1937 (ATCC, CRL-2336), UWB1.289+BRCA1 (ATCC, CRL-2946) were seeded at a density of 500 cells per well in a 384-well clear bottom plate (Greiner Cat #781090) in 45 μl total volume of DMEM (PanEco, Cat #C420) or RPMI (PanEco, Cat #C330) or RPMI/MEBM (Lonza, Cat #CC-3151+CC-4136) with 10% FBS (HyClone, Cat #SV30160.03). Cells were allowed to adhere overnight at 370 C, 5% CO2. 500× compounds solutions in DMSO (Sigma Cat #D2650) were prepared into Cmpnds plate (Diamond Well Plate, Axigen, Cat #P-384-120SQ-C-S) and DMSO only control was included. 1 μl of 500× compounds (Cmpnds plate) was added to 49 μl of culture medium into Dilution plate (Diamond Well Plate, Axigen, Cat #P-384-120SQ-C-S), mixed and then 5 μl of 10× compounds solutions were transferred to cells followed by centrifugation at 100 g for 1 min. Final DMSO concentration was 0.2%. After 3 days of incubation, 10 μl of 1× compounds were added to cells. […]
Background: In ATP-based viability assays light output follows the ATP content of the culture.

The mark [2] stands for this setting: 120 h, MDA-MB-231, 5 days, read-out: MDA-MB-231 EC50 (μM) 5 days.
Setting [3] is: 168 h, MDA-MB-231, 7 days, read-out: MDA-MB-231 EC50 (μM) 7 days.
The mark [4] stands for this setting: 240 h, MDA-MB-231, 10 days, read-out: MDA-MB-231 EC50 (μM) 10 days.

Like-named read-outs stand apart in the source and are kept apart here.

Usually EC50 stands for the concentration needed to bring the measured effect to its halfway point.

Chain of recombinant Wee1 protein (P30291 whole entry): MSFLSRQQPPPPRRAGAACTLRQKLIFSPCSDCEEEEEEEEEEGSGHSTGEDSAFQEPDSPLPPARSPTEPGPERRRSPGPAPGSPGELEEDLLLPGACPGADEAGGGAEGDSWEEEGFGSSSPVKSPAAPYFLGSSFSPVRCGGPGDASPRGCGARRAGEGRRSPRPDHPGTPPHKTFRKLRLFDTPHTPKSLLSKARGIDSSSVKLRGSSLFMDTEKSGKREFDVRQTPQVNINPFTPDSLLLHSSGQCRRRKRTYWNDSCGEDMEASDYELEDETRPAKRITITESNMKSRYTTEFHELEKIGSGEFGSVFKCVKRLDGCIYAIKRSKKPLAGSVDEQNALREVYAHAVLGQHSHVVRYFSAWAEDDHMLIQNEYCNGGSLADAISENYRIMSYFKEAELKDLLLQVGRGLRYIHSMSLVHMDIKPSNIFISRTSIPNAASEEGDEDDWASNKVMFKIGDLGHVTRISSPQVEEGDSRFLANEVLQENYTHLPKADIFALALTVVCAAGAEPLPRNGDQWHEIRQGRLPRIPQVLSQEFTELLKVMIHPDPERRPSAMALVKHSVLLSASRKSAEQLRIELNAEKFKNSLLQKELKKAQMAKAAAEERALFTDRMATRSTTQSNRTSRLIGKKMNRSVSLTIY
Chain of recombinant PARP1 (AA662-1014) protein (P09874 662-1014): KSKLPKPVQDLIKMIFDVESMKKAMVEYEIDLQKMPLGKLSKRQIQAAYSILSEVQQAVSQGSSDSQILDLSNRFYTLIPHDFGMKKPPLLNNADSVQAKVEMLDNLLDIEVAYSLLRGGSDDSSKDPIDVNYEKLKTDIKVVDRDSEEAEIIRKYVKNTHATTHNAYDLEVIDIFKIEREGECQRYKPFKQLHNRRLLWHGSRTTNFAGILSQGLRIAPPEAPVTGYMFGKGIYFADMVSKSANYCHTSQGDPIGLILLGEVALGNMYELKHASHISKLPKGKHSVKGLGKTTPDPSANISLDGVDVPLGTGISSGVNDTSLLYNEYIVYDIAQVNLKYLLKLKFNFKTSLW

As to `C=CCn1c(=O)c2cnc(Nc3ccc(N4CCN(C(=O)c5cc(Cc6n[nH]c(=O)c7ccccc67)ccc5F)CC4)cc3)nc2n1-c1ccccn1` [Compound 10, 4-{3-[(4-{4-[(2-Allyl-3-oxo-1-pyridin-2-yl-2,3-dihydro-1H-pyrazolo[3,4-d]pyrimidin-6-yl)amino]phenyl}piperazin-1-yl)carbonyl]-4-fluorobenzyl}phthalazin-1(2H)-one], the EC50 on recombinant Wee1 protein was 0.01 to 0.1 µM; in assay [1], less than 0.01 µM; with MDA-MB-231 (setting [2]) it was 4.89 µM; in the assay with MDA-MB-231 (setting [3]), 2.59 µM; in the assay with MDA-MB-231 (setting [4]), 1.49 µM.

`Cn1c(=O)c2cnc(Nc3ccc(N4CCN(C(=O)c5cc(Cc6n[nH]c(=O)c7ccccc67)ccc5F)CC4)cc3)nc2n1-c1ccccn1` [Compound 3, 4-{4-Fluoro-3-[(4-{4-[(2-methyl-3-oxo-1-pyridin-2-yl-2,3-dihydro-1H-pyrazolo[3,4-d]pyrimidin-6-yl)amino]phenyl}piperazin-1-yl)carbonyl]benzyl}phthalazin-1(2H)-one]: the EC50 at recombinant Wee1 protein was 0.1 to 1 µM; in assay [1], less than 0.01 µM; with MDA-MB-231 (setting [2]) it was 3.75 µM.

Turning to `C=CCn1c(=O)c2cnc(Nc3ccc(N4CCN(C(=O)c5cc(Cc6n[nH]c(=O)c7ccccc67)ccc5F)CC4)cc3)nc2n1-c1cccc(C(C)(C)O)c1`, the EC50 in assay [1] is less than 0.01 µM; with MDA-MB-231 (setting [2]), 0.69 µM; with MDA-MB-231 (setting [3]), 0.66 µM; in the assay with MDA-MB-231 (setting [4]), 0.11 µM.

Turning to `Cn1c(=O)c2cnc(Nc3ccc(N4CCCC(c5nc6cccc(C(N)=O)c6[nH]5)C4)cc3)nc2n1-c1ccccn1` (stereo not drawn) [Compound 96, 2-[1-[4-[[2-methyl-3-oxo-1-(2-pyridyl)pyrazolo[3,4-d]pyrimidin-6-yl]amino]phenyl]-3-piperidyl]-3H-benzimidazole-4-carboxamide], the EC50 in assay [1] is 0.01 to 0.1 µM; with MDA-MB-231 (setting [2]), 2.77 µM.

As for `Cn1c(=O)c2cnc(Nc3ccc(N4CCN(C(=O)c5cc(Cn6c(=O)[nH]c(=O)c7c(F)cccc76)ccc5F)CC4)cc3)nc2n1-c1ccccn1` [Compound 18, 5-Fluoro-1-{4-fluoro-3-[(4-{4-[(2-methyl-3-oxo-1-pyridin-2-yl-2,3-dihydro-1H-pyrazolo[3,4-d]pyrimidin-6-yl)amino]phenyl}piperazin-1-yl)carbonyl]benzyl}quinazoline-2,4(1H,3H)-dione], the 50% effective concentration (EC50) was 0.01 to 0.1 µM on recombinant Wee1 protein, less than 0.01 µM in assay [1] and greater than 10 µM in the assay with MDA-MB-231 (setting [2]).

Turning to `C=CCn1c(=O)c2cnc(Nc3ccc(N4CCN(C(=O)c5cc(Cn6c(=O)[nH]c(=O)c7c(F)cccc76)ccc5F)CC4)cc3)nc2n1-c1cccc(C(C)(C)O)n1` [Compound 16, 1-[[3-[4-[4-[[2-Allyl-1-[6-(1-hydroxy-1-methyl-ethyl)-2-pyridyl]-3-oxo-pyrazolo[3,4-d]pyrimidin-6-yl]amino]phenyl]piperazine-1-carbonyl]-4-fluoro-phenyl]methyl]-5-fluoro-quinazoline-2,4-dione], the 50% effective concentration (EC50) in assay [1] is less than 0.01 µM; with MDA-MB-231 (setting [2]), 0.96 µM; in the assay with MDA-MB-231 (setting [3]) it was 0.8 µM; in the assay with MDA-MB-231 (setting [4]) it was 0.18 µM.

For the compound `Cn1c(=O)c2cnc(Nc3ccc(NC(=O)c4cc(Cn5c(=O)[nH]c(=O)c6c(F)cccc65)ccc4F)cc3)nc2n1-c1ccccn1` [Compound 33, 2-Fluoro-5-[(5-fluoro-2,4-dioxo-3,4-dihydroquinazolin-1(2H)-yl)methyl]-N-{4-[(2-methyl-3-oxo-1-pyridin-2-yl-2,3-dihydro-1H-pyrazolo[3,4-d]pyrimidin-6-yl)amino]phenyl}benzamide], the EC50 on recombinant Wee1 protein was 0.1 to 1 µM; in assay [1], no less than 0.001 µM; in the assay on MDA-MB-231 (setting [2]), greater than 10 µM.

For `Cn1c(=O)c2cnc(Nc3ccc(N4CCN(C(=O)c5cc(Cn6c(=O)[nH]c(=O)c7c(F)cccc76)ccc5F)CC4)cc3)nc2n1-c1ncccn1` [Compound 29, 5-Fluoro-1-{4-fluoro-3-[(4-{4-[(2-methyl-3-oxo-1-pyrimidin-2-yl-2,3-dihydro-1H-pyrazolo[3,4-d]pyrimidin-6-yl)amino]phenyl}piperazin-1-yl)carbonyl]benzyl}quinazoline-2,4(1H,3H)-dione], the results for the EC50 (at recombinant Wee1 protein; in assay [1]) were 0.1 to 1 µM and less than 0.01 µM, respectively.

With `Cn1c(=O)c2cnc(Nc3ccc(N4CCN(C(=O)c5cc(Cc6n[nH]c(=O)c7ccccc67)ccc5F)CC4)cc3)nc2n1-c1ncccn1` [Compound 11, 4-{4-Fluoro-3-[(4-{4-[(2-methyl-3-oxo-1-pyrimidin-2-yl-2,3-dihydro-1H-pyrazolo[3,4-d]pyrimidin-6-yl)amino]phenyl}piperazin-1-yl)carbonyl]benzyl}phthalazin-1(2H)-one], the concentration for a half-maximal effect (EC50) was 0.01 to 0.1 µM at recombinant Wee1 protein; less than 0.01 µM in assay [1]; 8.76 µM in the assay on MDA-MB-231 (setting [2]); 6.28 µM in the assay on MDA-MB-231 (setting [3]); 3.6 µM in the assay on MDA-MB-231 (setting [4]).

Take `C=CCn1c(=O)c2cnc(Nc3ccc(N4CCN(Cc5ccc(-c6[nH]c7cc(F)cc8c7c6CCNC8=O)cc5)CC4)cc3)nc2n1-c1cccc(C(C)(C)O)n1` [Compound 35, 2-[4-({4-[4-({2-Allyl-1-[6-(1-hydroxy-1-methylethyl)pyridin-2-yl]-3-oxo-2,3-dihydro-1H-pyrazolo[3,4-d]pyrimidin-6-yl}amino)phenyl]piperazin-1-yl}methyl)phenyl]-8-fluoro-1,3,4,5-tetrahydro-6H-azepino[5,4,3-cd]indol-6-one]: the EC50 was 0.01 to 0.1 µM on recombinant Wee1 protein; 0.01 to 0.1 µM in assay [1]; 0.98 µM in the assay with MDA-MB-231 (setting [2]); 0.57 µM in the assay on MDA-MB-231 (setting [3]); 0.08 µM in the assay with MDA-MB-231 (setting [4]).

Values taken from patent US20250270212A1, “CHIMERIC COMPOUNDS USEFUL IN TREATING DISEASES” (Padarn Therapeutics, Inc., priority 2021, published 2025).
